This note sets out measurements from patent publication US20180296456A1, “Decapeptide-12 Modulation of Sirtuin Gene Expression in Epidermal Keratinocyte Progenitors” (Escape Therapeutics, Inc., priority 2017, published 2018).

Holding throughout (format): cell-based
Data set [1] can be described thus: Trypan blue cell viability, 7 days, epidermal progenitors. The note with it: human, relative to control, read-out: epidermal progenitor viability after 7 days. As to the method:
The effect of each of the decapeptides upon cell viability was also tested. In particular, cells were incubated with the decapeptide at various concentrations and then counted for viability relative to the control (untreated cells) using trypan blue. Cytotoxicity was measured according to the following formula:
[1−(# of cells in control−# of live cells in test sample)/# of cells in control]×100 percent.

A short description of the next data set: in vitro. The note with it: human, human epidermal progenitors. How it is done:
Proliferation rates were determined using a TACS® MTT Cell Proliferation Kit (R&D systems, Minneapolis, Minn.). Cells were seeded at 2.5×10^4/well in 96-well plates in a humidified atmosphere with 5 percent CO2 at 37 degrees Celsius. Twenty-four hours later, decapeptide-12 or oxyresveratrol were added to the corresponding wells at varying concentrations (0, 3, 10, 30, 100, 300, and 1000 μM), and cultures were then incubated for 72 hours. The remainder of the procedure was performed following the manufacturer's protocol.
Proliferation rates for three human cell lines (epidermal progenitors, melanoblasts, and fibroblasts) were determined using a TACS® MTT Cell Proliferation Kit. Cells were seeded at 2.5×10^4/well in 96-well plates in a humidified atmosphere with 5 percent CO2 at 37 degrees Celsius. Twenty-four hours later, the decapeptides were added to the corresponding wells at varying concentrations and incubated for 72 hours. The remainder of the procedure was performed following the manufacturer's protocol.

The subject of the next data set is SIRT2. Put plainly: SIRT2 transcription, semi-quantitative RT-PCR in human epidermal progenitors. As to conditions: 72 h. How it is done: Human neonatal epidermal progenitors (Thermo Fisher Scientific, NY) were seeded in 6-well plates at a density of 2×10^5 cells/well. Each well received 2 ml of Epilife media containing 60 μM calcium chloride (Thermo Fisher Scientific, NY). Plates were incubated in a humidified chamber at 37 degrees Celsius and 5 percent CO2. Twenty-four hours later, cells were treated with various concentrations of oxyresveratrol or decapeptide-12 dissolved in PBS containing 5 percent DMSO. Control wells received vehicle only (5 percent DMSO and PBS). Final concentration of DMSO in each well was 0.05 percent.
After a 72 hour incubation period, cells were trypsinized and total RNA extracted, using RNeasy kit (Qiagen, Valencia, Calif.) according to the manufacturer's protocol.
RNA concentration was determined using nanodrop (Thermo fisher scientific, NY). Two μg of total RNA were used to synthesize cDNA using oligo dT primers and TaqMan reverse transcription reagents (Thermo fisher scientific, NY). The reaction was carried out in DNA Engine Peltier Thermal Cycler (Bio-Rad, Hercules, Calif.). The annealing temperature was 25 degrees Celsius for 10 minutes, followed by first strand synthesis at 48 degrees Celsius for 1 hour, and heat inactivation at 95 degrees Celsius for 5 minutes.
The SIRT1-7 primers (table 1) were designed using Primer3. The semi-quantitative PCR reactions were performed on a DNA Engine Peltier Thermo Cycler (Bio-Rad, Hercules, Calif.). PCR was carried under the following conditions: denaturation at 94 degrees Celsius for 2 minutes and primer extension at 54 degrees Celsius for 30 seconds in 34 cycles for SIRT 1-7 and the housekeeping gene 18S.
Samples were run and resolved on a 1.5 percent agarose gel containing 0.5 μg/ml of ethidium bromide and imaged using the FluorChem HD2 Imaging System (Protein simple, San Jose, Calif.). Densitometry analysis was carried out using the AlphaEase FC software (Protein simple, San Jose, Calif.). Intensity ratios were calculated as the intensity value for each gene divided by the intensity value of the internal control gene 18S.
The effect of the decapeptides P4, P4A, P4B, and P4C upon the transcription levels of sirtuins 1-7 was evaluated. Table 4 summarizes transcription levels for all four decapeptides with the corresponding genes, at tested concentrations of: 10, 30, 50, 100, and 300 (all in μM).

Peptide text beside a SMILES is read from it.

The term viability denotes a per cent measure of how many cells are alive, often set against a control.

With “Ac-YRSRKYSSWY-NH2 [P4C, Acetyl-YRSRKYSSWY-amide]”, in data set [1], the viability at 168 h, 3 µM came to 100%; the viability at 168 h, 10 µM stood at 99 ± 1%; the viability at 168 h, 30 µM amounted to 98 ± 1%; the viability at 168 h, 50 µM was 97.4 ± 1%. Also, in data set [1], the viability at 168 h, 100 µM was 96.6 ± 2%; the viability at 168 h, 300 µM turned out to be 95.7 ± 3%; the viability at 168 h, 500 µM came to 94.8 ± 3%; the viability at 168 h, 1000 µM is 94 ± 3%. Also, in the data set “in vitro”, the viability at 72 h, 3 µM is 99 ± 1%; the viability at 72 h, 10 µM was 99 ± 1%; the viability at 72 h, 30 µM was found to be 98 ± 1%; the viability at 72 h, 50 µM was determined as 98 ± 1%. In the data set “in vitro”, the viability at 72 h, 100 µM worked out at 97 ± 1%; the viability at 72 h, 300 µM came to 97 ± 1%; the viability at 72 h, 500 µM came out at 96 ± 2%; the viability at 72 h, 1000 µM was 96 ± 2%. Moreover, in the data set on SIRT2 (10 μM), the “SIRT2 transcription increase relative to control” value came to 5.00%. In addition, the “SIRT2 transcription increase relative to control” value with SIRT2 (30 μM) came out at 2 ± 1%. In addition, the “SIRT2 transcription increase relative to control” value in the data set with SIRT2 (50 μM) was 1.00%. For the same molecule, the “SIRT2 transcription increase relative to control” value in the data set on SIRT2 (100 μM) is given as 42 ± 1%. The “SIRT2 transcription increase relative to control” value with SIRT2 (300 μM) was found to be 31 ± 9%.

On to `CCCCCCCCCCCCCCCC(=O)N[C@@H](Cc1ccc(O)cc1)C(=O)N[C@@H](CCCNC(=N)N)C(=O)N[C@@H](CO)C(=O)N[C@@H](CCCNC(=N)N)C(=O)N[C@@H](CCCCN)C(=O)N[C@H](Cc1ccc(O)cc1)C(=O)N[C@@H](CO)C(=O)N[C@@H](CO)C(=O)N[C@@H](Cc1c[nH]c2ccccc12)C(=O)N[C@@H](Cc1ccc(O)cc1)C(N)=O` [P4B, Palmitoyl-YRSRK[*Y]SSWY-amide] (HELM PEPTIDE1{[CCCCCCCCCCCCCCCC(=O)[*:2]].Y.R.S.R.K.[dY].S.S.W.Y.[am]}$$$$V2.0), for which, in data set [1], the viability at 168 h, 3 µM was determined as 100%; the viability at 168 h, 10 µM turned out to be 99 ± 1%; the viability at 168 h, 30 µM is 98.2 ± 1%; the viability at 168 h, 50 µM stood at 98 ± 1%. Also, in data set [1], the viability at 168 h, 100 µM is 97 ± 1%; the viability at 168 h, 300 µM is 96.5 ± 2%; the viability at 168 h, 500 µM is 95.5 ± 2%; the viability at 168 h, 1000 µM was found to be 94.5 ± 2%. In “in vitro”, this molecule registered a viability at 72 h, 3 µM of 99 ± 1%; a viability at 72 h, 10 µM of 99 ± 1%; a viability at 72 h, 30 µM of 98 ± 1%; a viability at 72 h, 50 µM of 98 ± 1%. In addition, in the data set “in vitro”, the viability at 72 h, 100 µM worked out at 97 ± 1%; the viability at 72 h, 300 µM stood at 97 ± 1%; the viability at 72 h, 500 µM worked out at 95 ± 2%; the viability at 72 h, 1000 µM worked out at 94 ± 2%. Further, in the data set with SIRT2 (10 μM), the “SIRT2 transcription increase relative to control” value is 5 ± 1%. Moreover, the “SIRT2 transcription increase relative to control” value in the data set on SIRT2 (30 μM) was 8 ± 3%. Besides, in the data set with SIRT2 (50 μM), the “SIRT2 transcription increase relative to control” value was determined as 17 ± 6%. Also, the “SIRT2 transcription increase relative to control” value with SIRT2 (100 μM) is given as 52 ± 4%. Moreover, in the data set with SIRT2 (300 μM), the “SIRT2 transcription increase relative to control” value is 40 ± 4%.
